Data set [1] is described as follows: Cytotoxicity against human MRC-5 SV2 cells assessed as reduction in cell viability. It is filed as cell-based.
Data set [2] can be described thus: Cytotoxicity against mouse primary macrophages assessed as reduction in cell viability. The class given is cell-based, Macrophage.
The subject of data set [3] is Trypanosoma brucei brucei. Kind of data set: Antitrypanosomal activity against Trypanosoma brucei brucei. The class given is functional, organism-based.
The subject of data set [4] is Trypanosoma cruzi. Kind of data set: Antitrypanosomal activity against Trypanosoma cruzi infected in human MRC-5 SV2 cells. It is filed as functional, organism-based.
In data set [5] the test system is Leishmania infantum. Kind of data set: Antileishmanial activity against Leishmania infantum infected in mouse primary macrophages. It is filed as functional, organism-based. The settings on record: Primary macrophage.
Data set [6] has as its system Trypanosoma brucei rhodesiense. Kind of data set: Antitrypanosomal activity against Trypanosoma brucei rhodesiense. The class given is functional, organism-based.

By CC50 is commonly meant the concentration at which the toxic effect on the cells reaches its halfway point. Broadly, the IC50 is the concentration needed to halve the response being measured. The low end stands for higher potency, the high end for lower potency. As to `Nc1ncnn2c([C@@H]3O[C@H](CO)[C@@H](O)[C@H]3O)ccc12`, the CC50 in data set [1] and in data set [2] was below 0.25 µM each time. Besides, the concentration for half-maximal inhibition (IC50) is below 0.25 µM in data set [3], below 250 nM in data set [4], below 0.25 µM in data set [5] and below 0.25 µM in data set [6].

On to `Nc1ncnn2c([C@@H]3O[C@H](CO)[C@@H](O)[C@H]3O)cc(-c3ccc(Cl)cc3)c12`, for which the 50% cytotoxic concentration (CC50) worked out at 10.8 µM in data set [1] and 5 µM in data set [2]. In addition, the concentration for half-maximal inhibition (IC50) in data set [3] came out at 3.89 µM; in data set [4], 540 nM; in data set [5], 236 µM; in data set [6], 3.71 µM.

For the molecule `O=c1[nH]cnn2c([C@@H]3O[C@H](CO)[C@@H](O)[C@H]3O)cnc12`, the CC50 in data set [1] and in data set [2] was above 64 µM in each case. Besides, the IC50 came to 0.5 µM in data set [3], 600 nM in data set [4], 3.17 µM in data set [5] and 3.01 µM in data set [6].

For `Nc1ncnn2c([C@@H]3O[C@H](CO)[C@@H](O)[C@H]3O)cc(Br)c12`, the 50% cytotoxic concentration (CC50) in data set [1] is at least 11.8 µM; in data set [2], 2 µM. Besides, the IC50 is 1.69 µM in data set [3], 780 nM in data set [4], 1.13 µM in data set [5] and 0.14 µM in data set [6].

As for `Nc1nccn2c([C@@H]3O[C@H](CO)[C@@H](O)[C@H]3O)cnc12`, the CC50 in data set [1] and in data set [2] was above 64 µM throughout. Also, the IC50 in data set [3] is above 64 µM; in data set [4], above 64000 nM; in data set [5], above 64 µM; in data set [6] it was 0.81 µM.

As for `Nc1ncnc2c([C@@H]3O[C@H](CO)[C@@H](O)[C@H]3O)cn(-c3ccc(Cl)c(F)c3)c12`, the half-maximal cytotoxic concentration (CC50) in data set [1] and in data set [2] was above 64 µM in each case. Besides, the half-inhibitory concentration (IC50) is 40.3 µM in data set [3], 1040 nM in data set [4], above 64 µM in data set [5] and 29 µM in data set [6].

As to `N#C[C@]1(c2ccc3c(N)ncnn23)O[C@H](CO)[C@@H](O)[C@H]1O`, the CC50 in data set [1] and in data set [2] was above 64 µM in each case. The half-maximal inhibitory concentration (IC50) in data set [3] is 10.3 µM; in data set [4], above 64000 nM; in data set [5] it was above 64 µM; in data set [6], 1.77 µM.

Consider `N#C[C@@]1(c2cc(Br)c3c(N)ncnn23)O[C@H](CO)[C@@H](O)[C@H]1O`, for which the results for the CC50 in data set [1] and in data set [2] were 11 µM and 32 µM, respectively. The concentration for half-maximal inhibition (IC50) in data set [3] came out at 13 µM; in data set [4], 39300 nM; in data set [5], 32.5 µM; in data set [6] it was 1.58 µM.

On to `Nc1ncnc2c([C@@H]3O[C@H](CO)[C@@H](O)[C@H]3O)cnn12`, for which the CC50 was 9.32 µM in data set [1] and above 64 µM in data set [2]. In addition, the half-maximal inhibitory concentration (IC50) in data set [3] is 24.8 µM; in data set [4] it was 3810 nM; in data set [5], 21.9 µM; in data set [6], 33.8 µM.

With `O=c1[nH]cnn2c([C@@H]3O[C@H](CO)[C@@H](O)[C@H]3O)cc(Br)c12`, the 50% cytotoxic concentration (CC50) in data set [1] and in data set [2] was above 64 µM throughout. Besides, the IC50 in data set [3] is 30.9 µM; in data set [4], above 64000 nM; in data set [5], above 64 µM; in data set [6] it was 20 µM.

As for `Nc1ncnn2c([C@@H]3O[C@H](CO)C[C@H]3O)cc(-c3ccc(Cl)cc3)c12`, the half-maximal cytotoxic concentration (CC50) in data set [1] was at least 22.3 µM; in data set [2], 24 µM. Also, the IC50 in data set [3] amounted to 3.53 µM; in data set [4] it was 230 nM; in data set [5], 23.3 µM; in data set [6] it was 1.65 µM.

Take `Nc1ncnn2c([C@@H]3O[C@H](CO)[C@@H](O)[C@H]3O)cc(-c3ccc(Cl)c(F)c3)c12`: the cytotoxic concentration (CC50) in data set [1] is at least 40.3 µM; in data set [2], above 64 µM. Further, the IC50 in data set [3] was 6.78 µM; in data set [4], 2450 nM; in data set [5] it was at least 40.3 µM; in data set [6] it was 5.98 µM.

As for `O=c1[nH]cnn2c([C@@H]3O[C@H](CO)[C@@H](O)[C@H]3O)ccc12`, the CC50 was 49.4 µM in data set [1] and above 64 µM in data set [2]. The IC50 in data set [3] was 3.53 µM; in data set [4] it was 7670 nM; in data set [5], 5.66 µM; in data set [6], 7.06 µM.

Consider `O=c1[nH]cnn2c([C@@H]3O[C@H](CO)C[C@H]3O)ccc12`, for which the CC50 in data set [1] and in data set [2] was above 64 µM each time. Also, the half-maximal inhibitory concentration (IC50) in data set [3] was above 64 µM; in data set [4], above 64000 nM; in data set [5], above 64 µM; in data set [6], 33.8 µM.

For `Nc1ncnc2c([C@@H]3O[C@H](CO)[C@@H](O)[C@H]3O)cn(-c3ccc(Br)cc3)c12`, the CC50 in data set [1] and in data set [2] was above 64 µM each time. Further, the IC50 is 41.8 µM in data set [3], 460 nM in data set [4], at least 50.8 µM in data set [5] and 28.9 µM in data set [6].

Consider `Nc1ncnn2c([C@@H]3O[C@H](CO)[C@@H](O)[C@H]3O)cnc12`, for which the CC50 in data set [1] was 1.41 µM; in data set [2] it was 32 µM. Besides, the IC50 in data set [3] was below 0.25 µM; in data set [4] it was 620 nM; in data set [5] it was 5.15 µM; in data set [6], 2 µM.

Take `Nc1ncnc2c([C@@H]3O[C@H](CO)[C@@H](O)[C@H]3O)cn(-c3ccc(Cl)cc3)c12`: the cytotoxic concentration (CC50) in data set [1] and in data set [2] was above 64 µM each time. For the same molecule, the 50% inhibitory concentration (IC50) in data set [3] was 26.9 µM; in data set [4], 340 nM; in data set [5], above 64 µM; in data set [6], 26.2 µM.

On to `Nc1nccn2c([C@@H]3O[C@H](CO)C[C@H]3O)cnc12`, for which the CC50 in data set [1] and in data set [2] was above 64 µM in each case. The IC50 is above 64 µM in data set [3], above 64000 nM in data set [4], above 64 µM in data set [5] and 55.7 µM in data set [6].

Consider `OC[C@H]1O[C@@H](c2cnn3c(O)ncnc23)[C@H](O)[C@@H]1O`, for which the cytotoxic concentration (CC50) in data set [1] and in data set [2] was above 64 µM each time. In addition, the IC50 in data set [3] came out at 17.2 µM; in data set [4] it was 10100 nM; in data set [5], 34.2 µM; in data set [6], 36.7 µM.

In data set [4], `O=C(Cn1ccnc1[N+](=O)[O-])NCc1ccccc1` [BENZNIDAZOLE] yielded an IC50 of 2020 nM.

Take `N#C[C@@]1(c2ccc3c(N)ncnn23)O[C@H](CO)[C@@H](O)[C@H]1O` [GS-441524]: the CC50 in data set [1] and in data set [2] was above 64 µM in each case. The 50% inhibitory concentration (IC50) is 8.91 µM in data set [3], above 64000 nM in data set [4], above 64 µM in data set [5] and 0.58 µM in data set [6].

`CCCCCCCCCCCCCCCCOP(=O)([O-])OCC[N+](C)(C)C` [MILTEFOSINE] yielded an IC50 in data set [5] of 7.47 µM.

Take `Cc1ccc(C(=O)Nc2ccc(S(=O)(=O)O)c3cc(S(=O)(=O)O)cc(S(=O)(=O)O)c23)cc1NC(=O)c1cccc(NC(=O)Nc2cccc(C(=O)Nc3cc(C(=O)Nc4ccc(S(=O)(=O)O)c5cc(S(=O)(=O)O)cc(S(=O)(=O)O)c45)ccc3C)c2)c1` [SURAMIN]: the midpoint of inhibition in data set [6], the IC50, lay at 0.04 µM.
